# Tests used:
# [1] = target: T1, Dihydroorotate dehydrogenase (quinone), mitochondrial (Homo sapiens, UniProt Q02127); assay: Inhibition of human DHODH at 1 uM for 30 mins relative to control
# [2] = target: T1, Dihydroorotate dehydrogenase (quinone), mitochondrial; assay: Inhibition of human DHODH at 100 nM for 30 mins relative to control
# [3] = target: T1, Dihydroorotate dehydrogenase (quinone), mitochondrial; assay: Inhibition of human DHODH incubated for 30 mins
# [4] = Selectivity index ratio of IC50 for human HL7702 cells to IC50 for human Raji cells; assay type: toxicity; conditions: HL7702 cells and Raji cells, read-out: Ratio IC50
# [5] = Toxicity in BALB/c mouse assessed as histopathological changes in kidney administered at 300 mg/kg, po for 14 days; assay type: organism-based; conditions: in vivo, 336 h, time 14 day
# [6] = Toxicity in BALB/c mouse assessed as change in blood RDW administered at 300 mg/kg, po for 14 days; assay type: organism-based; conditions: in vivo, 336 h, time 14 day
# A-375 = assay: Antiproliferative activity against human A-375 cells incubated for 96 hrs by MTT assay; assay type: functional, cell-based; conditions: A-375, 96 h
# [7] = Toxicity in BALB/c mouse assessed as change in blood HCT administered at 300 mg/kg, po for 14 days; assay type: organism-based; conditions: in vivo, 336 h, time 14 day
# Kasumi 1 = assay: Antiproliferative activity against human Kasumi 1 cells incubated for 96 hrs by MTT assay; assay type: functional, cell-based; conditions: Kasumi 1, 96 h
# [8] = Toxicity in BALB/c mouse assessed as change in blood MCH administered at 300 mg/kg, po for 14 days; assay type: organism-based; conditions: in vivo, 336 h, time 14 day
# SUD4 = assay: Antiproliferative activity against human SU-DHL-4 cells incubated for 96 hrs by MTT assay; assay type: functional, cell-based; conditions: SU-DHL-4, 96 h
# [9] = Toxicity in BALB/c mouse assessed as change in blood HGB administered at 300 mg/kg, po for 14 days; assay type: organism-based; conditions: in vivo, 336 h, time 14 day
# [10] = Toxicity in BALB/c mouse assessed as increase in albumin to globulin ratio administered at 300 mg/kg, po for 14 days; assay type: organism-based; conditions: in vivo, 336 h, time 14 day
# [11] = Toxicity in BALB/c mouse assessed as change in blood MCHC administered at 300 mg/kg, po for 14 days; assay type: organism-based; conditions: in vivo, 336 h, time 14 day
# [12] = Lipophilicity, logP of compound; assay type: physicochemical; conditions: octanol/water
# [13] = Cytotoxicity against human NCM460 cells incubated for 96 hrs by MTT assay; assay type: toxicity, cell-based
# [14] = Toxicity in BALB/c mouse assessed as histopathological changes in lung administered at 300 mg/kg, po for 14 days; assay type: organism-based; conditions: in vivo, 336 h, time 14 day
# [15] = Aqueous solubility of compound; assay type: physicochemical; conditions: buffer
# [16] = Toxicity in BALB/c mouse assessed as change in blood PLT administered at 300 mg/kg, po for 14 days; assay type: organism-based; conditions: in vivo, 336 h, time 14 day
# U-937 = assay: Antiproliferative activity against human U-937 cells incubated for 96 hrs by MTT assay; assay type: functional, cell-based; conditions: U-937, 96 h
# [17] = Toxicity in BALB/c mouse assessed as change in blood RBC administered at 300 mg/kg, po for 14 days; assay type: organism-based; conditions: in vivo, 336 h, time 14 day
# [18] = Toxicity in BALB/c mouse assessed as change in blood neutrophil administered at 300 mg/kg, po for 14 days; assay type: organism-based; conditions: in vivo, 336 h, time 14 day
# [19] = Cytotoxicity against human HCoEpiC cells incubated for 96 hrs by MTT assay; assay type: toxicity, cell-based
# [20] = Toxicity in BALB/c mouse assessed as change in blood MCV administered at 300 mg/kg, po for 14 days; assay type: organism-based; conditions: in vivo, 336 h, time 14 day
# [21] = Toxicity in BALB/c mouse assessed as histopathological changes in liver administered at 300 mg/kg, po for 14 days; assay type: organism-based; conditions: in vivo, 336 h, time 14 day
# [22] = Toxicity in BALB/c mouse assessed as histopathological changes in spleen administered at 300 mg/kg, po for 14 days; assay type: organism-based; conditions: in vivo, 336 h, time 14 day
# HCT-116 = assay: Antiproliferative activity against human HCT-116 cells incubated for 96 hrs by MTT assay; assay type: functional, cell-based; conditions: HCT-116, 96 h
# [23] = Toxicity in BALB/c mouse assessed as change in blood WBC administered at 300 mg/kg, po for 14 days; assay type: organism-based; conditions: in vivo, 336 h, time 14 day
# [24] = Toxicity in BALB/c mouse assessed as induction of liver inflammation administered at 300 mg/kg, po for 14 days; assay type: organism-based; conditions: in vivo, 336 h, time 14 day
# [25] = target: Voltage-gated inwardly rectifying potassium channel KCNH2 (Homo sapiens, UniProt Q12809); assay: Inhibition of human ERG; assay type: toxicity
# Sequence of Voltage-gated inwardly rectifying potassium channel KCNH2 (Q12809 whole entry): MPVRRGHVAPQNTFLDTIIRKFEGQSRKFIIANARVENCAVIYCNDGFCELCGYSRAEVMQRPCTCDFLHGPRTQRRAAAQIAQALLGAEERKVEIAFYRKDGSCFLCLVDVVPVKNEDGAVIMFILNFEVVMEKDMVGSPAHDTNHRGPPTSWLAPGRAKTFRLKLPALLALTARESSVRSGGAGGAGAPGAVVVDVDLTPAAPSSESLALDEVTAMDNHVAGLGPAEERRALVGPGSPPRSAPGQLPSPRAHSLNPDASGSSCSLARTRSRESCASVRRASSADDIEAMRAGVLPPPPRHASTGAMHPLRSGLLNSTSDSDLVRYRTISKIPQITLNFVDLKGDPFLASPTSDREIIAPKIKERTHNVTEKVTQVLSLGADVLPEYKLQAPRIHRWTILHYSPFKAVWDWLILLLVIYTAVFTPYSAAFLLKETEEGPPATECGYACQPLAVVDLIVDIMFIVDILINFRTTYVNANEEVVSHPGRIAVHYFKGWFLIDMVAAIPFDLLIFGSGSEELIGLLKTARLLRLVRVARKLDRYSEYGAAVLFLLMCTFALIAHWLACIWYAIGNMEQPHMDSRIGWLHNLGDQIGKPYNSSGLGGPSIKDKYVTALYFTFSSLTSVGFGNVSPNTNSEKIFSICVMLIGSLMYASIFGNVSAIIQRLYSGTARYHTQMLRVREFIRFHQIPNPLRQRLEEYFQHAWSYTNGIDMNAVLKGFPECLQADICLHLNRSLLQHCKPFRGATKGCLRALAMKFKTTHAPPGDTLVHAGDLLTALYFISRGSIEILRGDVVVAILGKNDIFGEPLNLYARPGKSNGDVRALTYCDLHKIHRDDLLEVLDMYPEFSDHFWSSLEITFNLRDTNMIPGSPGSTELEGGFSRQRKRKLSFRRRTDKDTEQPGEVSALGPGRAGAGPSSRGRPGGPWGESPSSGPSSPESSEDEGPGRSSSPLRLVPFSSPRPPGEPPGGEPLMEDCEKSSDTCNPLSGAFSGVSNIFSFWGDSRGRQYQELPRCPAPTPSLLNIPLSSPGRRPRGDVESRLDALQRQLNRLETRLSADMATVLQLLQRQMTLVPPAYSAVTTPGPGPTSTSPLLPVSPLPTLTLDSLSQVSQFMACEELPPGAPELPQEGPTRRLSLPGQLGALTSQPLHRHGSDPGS
# KG-1 = assay: Antiproliferative activity against human KG-1 cells incubated for 96 hrs by MTT assay; assay type: functional, cell-based; conditions: KG-1, 96 h
# Raji = assay: Antiproliferative activity against human Raji cells incubated for 96 hrs by MTT assay; assay type: functional, cell-based
# [26] = Toxicity in BALB/c mouse assessed as change in blood MPV administered at 300 mg/kg, po for 14 days; assay type: organism-based; conditions: in vivo, 336 h, time 14 day
# [27] = Toxicity in BALB/c mouse assessed as change in blood lymphocytes administered at 300 mg/kg, po for 14 days; assay type: organism-based, Lymphocyte; conditions: in vivo, 336 h, time 14 day
# [28] = Cytotoxicity against human HL7702 cells incubated for 96 hrs by MTT assay; assay type: toxicity, cell-based, L02
# [29] = target: T1, Dihydroorotate dehydrogenase (quinone), mitochondrial; assay: Potency index, ratio of teriflunomide IC50 to test compound IC50 for human DHODH
# T1 sequence (Q02127 whole entry): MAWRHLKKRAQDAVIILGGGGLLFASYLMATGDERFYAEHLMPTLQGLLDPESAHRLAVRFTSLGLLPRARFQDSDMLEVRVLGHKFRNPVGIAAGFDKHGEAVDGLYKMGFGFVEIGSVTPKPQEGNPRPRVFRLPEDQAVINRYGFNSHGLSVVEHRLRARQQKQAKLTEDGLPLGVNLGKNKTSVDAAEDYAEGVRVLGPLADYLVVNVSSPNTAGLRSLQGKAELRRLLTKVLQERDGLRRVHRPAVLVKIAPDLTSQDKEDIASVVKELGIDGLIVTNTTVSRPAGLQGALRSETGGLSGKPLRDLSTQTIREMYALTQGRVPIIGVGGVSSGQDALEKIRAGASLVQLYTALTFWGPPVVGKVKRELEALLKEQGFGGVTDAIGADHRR
smiles,measurement,setting,value
C/C(O)=C(\C#N)C(=O)Nc1ccc(C(=O)c2ccccc2)cc1F,inhibition,[1],70.7%
same,inhibition,[2],32.1%
C/C(O)=C(\C#N)C(=O)Nc1cc(O[C@@H](C)C(F)(F)F)c(C(=O)c2cccc(F)c2)cc1F,IC50,[3],63.5 nM
same,inhibition,[1],92.1%
same,inhibition,[2],59.3%
O=C(c1ccccc1)c1ccc(Nc2ncccc2C(=O)O)c(Cl)c1,IC50,[3],63.5 nM
same,inhibition,[1],88.1%
same,inhibition,[2],62.4%
O=C(c1ccccc1)c1ccc(Nc2ncccc2C(=O)O)cc1,IC50,[3],178 nM
same,inhibition,[1],80.4%
same,inhibition,[2],38.3%
O=C(c1ccccc1)c1cc(F)c(Nc2ncccc2C(=O)O)c(F)c1,IC50,[3],35.1 nM
same,inhibition,[1],90.4%
same,inhibition,[2],67.2%
CCOc1cc(NC(=O)/C(C#N)=C(/C)O)c(F)cc1C(=O)c1ccccc1,inhibition,[1],83.1%
same,inhibition,[2],49.8%
COc1cccc(C(=O)c2cc(F)c(NC(=O)/C(C#N)=C(/C)O)cc2O[C@@H](C)C(F)(F)F)c1,IC50,[3],69.1 nM
same,inhibition,[1],92.2%
same,inhibition,[2],57.2%
C/C(O)=C(\C#N)C(=O)Nc1cc(O[C@@H](C)C(F)(F)F)c(C(=O)c2ccc(Cl)cc2)cc1F,IC50,[3],70.5 nM
same,inhibition,[1],91.3%
same,inhibition,[2],56.8%
C/C(O)=C(\C#N)C(=O)Nc1cc(O[C@@H](C)C(F)(F)F)c(C(=O)c2ccccc2F)cc1F,selectivity ratio,[4],21
same,Activity,[5],Non-Toxic
same,Activity,[6],Non-Toxic
same,IC50,A-375,950 nM
same,Activity,[7],Non-Toxic
same,IC50,Kasumi 1,410 nM
same,Activity,[8],Non-Toxic
same,IC50,SUD4,1650 nM
same,Activity,[9],Non-Toxic
same,Activity,[10],Toxic
same,Activity,[11],Non-Toxic
same,logP,[12],2.16
same,IC50 at 96 h,[13],> 10000 nM
same,Activity,[14],Non-Toxic
same,solubility,[15],109 µg/mL
same,Activity,[16],Non-Toxic
same,IC50,U-937,520 nM
same,Activity,[17],Non-Toxic
same,Activity,[18],Non-Toxic
same,IC50 at 96 h,[19],60500 nM
same,Activity,[20],Non-Toxic
same,Activity,[21],Toxic
same,Activity,[22],Non-Toxic
same,IC50,[3],23.9 nM
same,IC50,HCT-116,640 nM
same,Activity,[23],Non-Toxic
same,Activity,[24],Toxic
same,IC50,[25],> 100000 nM
same,inhibition,[1],96.9%
same,IC50,KG-1,530 nM
same,IC50,Raji,100 nM
same,Activity,[26],Non-Toxic
same,inhibition,[2],79.1%
same,Activity,[27],Non-Toxic
same,IC50 at 96 h,[28],2100 nM
O=C(c1ccccc1)c1ccc(Nc2ncccc2C(=O)O)c(F)c1,IC50,[3],66.1 nM
same,inhibition,[1],86.3%
same,inhibition,[2],57.7%
CCC(C)Oc1cc(NC(=O)/C(C#N)=C(/C)O)c(F)cc1C(=O)c1ccccc1 (stereo unspecified),IC50,[3],35.6 nM
same,inhibition,[1],90.1%
same,inhibition,[2],65.4%
C/C(O)=C(\C#N)C(=O)Nc1cc(O[C@@H](C)C(F)(F)F)c(C#N)cc1F,inhibition,[1],76.3%
same,inhibition,[2],31.8%
C/C(O)=C(\C#N)C(=O)Nc1cc(O[C@@H](C)C(F)(F)F)c(C(=O)c2ccc3ccccc3c2)cc1F,inhibition,[1],90.2%
same,inhibition,[2],53.4%
C/C(O)=C(\C#N)C(=O)Nc1cc(F)c(C(=O)c2ccccc2)cc1F,inhibition,[1],76.3%
same,inhibition,[2],43.8%
COc1ccc(C(=O)c2cc(F)c(NC(=O)/C(C#N)=C(/C)O)cc2O[C@@H](C)C(F)(F)F)cc1,inhibition,[1],90%
same,inhibition,[2],52.1%
C/C(O)=C(\C#N)C(=O)Nc1ccc(C(F)(F)F)cc1,inhibition,[2],21.5%
C/C(O)=C(\C#N)C(=O)Nc1cc(OC(C)C)c(C(=O)c2ccccc2)cc1F,IC50,[3],37.1 nM
same,inhibition,[1],89.9%
same,inhibition,[2],66.1%
C/C(O)=C(\C#N)C(=O)Nc1ccc(C(=O)c2ccccc2)c(F)c1,inhibition,[1],74.1%
same,inhibition,[2],31.7%
C/C(O)=C(\C#N)C(=O)Nc1cc(O[C@@H](C)C(F)(F)F)c(C(=O)c2cccc(Cl)c2)cc1F,IC50,[3],54.8 nM
same,inhibition,[1],93.7%
same,inhibition,[2],61.8%
C/C(O)=C(\C#N)C(=O)Nc1cc(O[C@@H](C)C(F)(F)F)c(C(=O)c2ccccc2)cc1F,Ratio IC50,[29],14
same,IC50,[3],29 nM
same,inhibition,[1],95.3%
same,inhibition,[2],71.5%
C/C(O)=C(\C#N)C(=O)Nc1cc(O[C@@H](C)C(F)(F)F)c(C(=O)c2ccc(F)cc2)cc1F,IC50,[3],71.8 nM
same,inhibition,[1],91.6%
same,inhibition,[2],56.4%
C/C(O)=C(\C#N)C(=O)Nc1ccc(C(=O)c2ccccc2)cc1,inhibition,[1],57.3%
same,inhibition,[2],30.8%
COc1cc(NC(=O)/C(C#N)=C(/C)O)c(F)cc1C(=O)c1ccccc1,inhibition,[1],82.4%
same,inhibition,[2],48.5%
